Results from the supplement of paper PMC10307832.

Tests used:
Experiment in all cases: relative viability (nuclei count vs DMSO), 5 days (fraction); higher = more cells survive
[1] = compound: CN1C=C(C2=CC=CC=C21)/C=C\3/C4=C(C=CC=N4)NC3=O
Outline: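 MetaXpress counted nuclei in 4× images of lung cancer cell lines that had been fixed, permeabilised and Hoechst-stained in one step. Before that, cells in 1536-well plates were kept overnight at 37 °C, pinned with five √10-spaced library-drug doses on vehicle-anchored plates, and cultured 5 days without medium change. Viability takes treated-well nuclei over vehicle-well nuclei and uses the median across plates. Plates were accepted only at control CV below 25% and at least one doubling.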

Trametinib + Luminespib = compound: CC(=O)Nc1cccc(-n2c(=O)n(C3CC3)c(=O)c3c(Nc4ccc(I)cc4F)n(C)c(=O)c(C)c32)c1 [Trametinib] + CCNC(=O)c1noc(-c2cc(C(C)C)c(O)cc2O)c1-c1ccc(CN2CCOCC2)cc1 [Luminespib] (partner 0.01 µM)
Outline: (§1)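 Relative viability divides the nuclei count in treated wells by that in vehicle wells. Lung cancer cell lines were seeded in 1536-well plates, dosed by pin tool the next day, and fixed and stained after 5 days in one step with final 0.05% Triton X-100, 1% formaldehyde and 1 ug/ml Hoechst. Dosing was a single drug or a fixed anchor-drug dose plus five library-drug doses (not always all listed) in √10 steps, and values are medians of duplicate plates imaged at 4×.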

Trametinib + Vorinostat = compound: CC(=O)Nc1cccc(-n2c(=O)n(C3CC3)c(=O)c3c(Nc4ccc(I)cc4F)n(C)c(=O)c(C)c32)c1 [Trametinib] + O=C(CCCCCCC(=O)Nc1ccccc1)NO [Vorinostat] (partner 1 µM)
Outline: as §1

[2] = compound: CN1C=C(C2=CC=CC=C21)/C=C\3/C4=C(C=CC=N4)NC3=O + Nc1nc2[nH]cc(CCc3ccc(C(=O)N[C@@H](CCC(=O)O)C(=O)O)cc3)c2c(=O)[nH]1 [Pemetrexed] (partner 0.2 µM)
Outline: as §1

Cell Line	relative viability ([1]; 0.02 µM)	relative viability ([1]; 0.06325 µM)	relative viability ([1]; 0.2 µM)	relative viability ([1]; 0.6325 µM)	relative viability ([1]; 2 µM)	relative viability (Trametinib + Luminespib; first compound 0.0025 µM)	relative viability (Trametinib + Luminespib; first compound 0.007906 µM)	relative viability (Trametinib + Luminespib; first compound 0.025 µM)	relative viability (Trametinib + Luminespib; first compound 0.07906 µM)	relative viability (Trametinib + Luminespib; first compound 0.25 µM)	relative viability (Trametinib + Vorinostat; first compound 0.0025 µM)	relative viability (Trametinib + Vorinostat; first compound 0.007906 µM)	relative viability (Trametinib + Vorinostat; first compound 0.025 µM)	relative viability (Trametinib + Vorinostat; first compound 0.07906 µM)	relative viability (Trametinib + Vorinostat; first compound 0.25 µM)	relative viability ([2]; first compound 0.02 µM)	relative viability ([2]; first compound 0.06325 µM)	relative viability ([2]; first compound 0.2 µM)	relative viability ([2]; first compound 0.6325 µM)	relative viability ([2]; first compound 2 µM)
NCI-H441	1.19	0.935	1.08	1.01	1.02	0.331	0.264	0.362	0.285	0.327	0.819	0.797	0.722	0.749	0.608	0.275	0.241	0.264	0.285	0.251
NCI-H520	0.967	0.895	1.03	0.952	0.965	0.252	0.2	0.259	0.253	0.218	0.868	0.733	0.68	0.691	0.532	0.67	0.53	0.698	0.672	0.732
CAL-12T	0.894	0.873	0.98	0.972	0.924	0.725	0.29	0.344	0.309	0.239	0.728	0.637	0.394	0.41	0.265	1.1	1.13	1.21	1.34	1.34
HCC-827	0.94	0.978		1.11	1.06	0.63	0.24	0.219	0.228	0.153	0.903	0.876	0.71	0.677	0.502	0.227	0.28		0.247	0.258
LC-2-ad	0.988	0.995	0.786	1	0.959	0.975	0.951	1	0.71	0.447	0.648	0.665	0.663	0.547	0.472	0.287	0.255	0.26	0.271	0.285
NCI-H2170	0.854	0.983	0.833	0.839	1.07	0.58	0.749	0.399	0.559	0.431	0.821	0.723		0.73	0.803	0.261	0.254	0.292	0.264	0.257
SW 1573	1.07	0.968	0.994	1.05	0.971	0.181	0.237	0.13	0.157	0.163	0.755	0.663	0.437	0.491	0.278	0.785	0.806	0.788	0.93	0.906
NCI-H1648	0.603	0.885	0.812	0.601	0.671						0.422	0.479	0.488	0.3	0.376	0.729	0.777	0.922	0.691	0.739
NCI-H1299	1.01	1.01	1.02	1.05	1.02															
Calu-6	1.02	0.968	1.01	0.99	1.05															
HCC-366	1.01	1	0.923	1.1	1.02						0.354	0.291	0.357	0.356	0.106	0.148	0.142	0.196	0.155	0.133
EBC-1	0.968	0.963	0.905	0.912	0.969															
HCC-78	0.81	0.905	0.731	0.803	0.889						0.447	0.377	0.382	0.433	0.414	0.907	0.945	0.951	0.903	0.913
IA-LM	0.978	0.934	0.945	0.811	0.878						0.744	0.604	0.255	0.125	0.12					
NCI-H1703	0.943	0.827	0.8	0.9	0.776															
A549	0.935	0.992	0.767	0.923	0.989															
NCI-H727	0.924	0.855	0.818	0.921	0.936	0.297	0.314	0.291	0.244	0.225	0.961	0.851	0.424	0.387	0.382					
NCI-H1623	0.815	1.02	0.735	0.85	0.912	0.593	0.406	0.315	0.287	0.344										
NCI-H1563	1.08	1	0.99	1.05	0.992	0.515	0.481	0.505	0.476	0.569						0.827	0.694	0.703	0.665	0.752
NCI-H1792	0.88	0.979	0.69	0.829	0.957	0.399	0.348	0.294	0.286	0.238						1.06	0.813	0.496	0.74	0.825
ABC-1	0.829	0.896	0.709	0.857	0.764	0.665	0.819	0.446	0.307	0.439	0.798	0.898	0.562	0.613	0.349					
